{
  "source": "patent US20250000881A1",
  "about": "“TREATMENT OF TREATMENT RESISTANT […] PSILOCYBIN” (COMPASS […], priority 2021, published 2025)",
  "system": "adult subjects with TRD",
  "assay": "Phase 2b randomised double-blind trial in TRD: MADRS total score, response, remission, sustained response",
  "assay_type": "in vivo, human",
  "settings": "for Protocol-defined sustained response (MADRS response criteria from week 3 until week 12): up to week 12",
  "procedure": "Studies with more rigorous designs are needed to better the therapeutic potential of psilocybin in treatment-resistant depression (TRD). The aim of this study was to assess the effectiveness of 3 different doses of psilocybin (1 mg, 10 mg, and 25 mg) in TRD.\nThis was a Phase 2b, international multicentre, randomized, fixed dose, double-blind trial. The study population included adult men and women, 18 years of age and older, with TRD. […] Augmentation counts as a second treatment, provided it was approved for the adjunctive treatment of MDD in that country.\nThe treatment period was determined the optimal therapeutic dose; 233 subjects were randomised in an approximately 1:1:1 ratio to receive 1 mg psilocybin (79 subjects), 10 mg psilocybin (75 subjects), or 25 mg psilocybin (79 subjects). Average patient baseline MADRS values were 31.9 in the 25 mg group, 33.0 in the 10 mg group, and 32.7 in the 1 mg group. This represents moderate to severe depression (≥31=cut-off for severe depression based on MADRS).\nThe primary objective of this study was to evaluate the efficacy of psilocybin (25 mg or 10 mg) compared to 1 mg, administered under supportive conditions to adult subjects with TRD, in improving depressive symptoms, as assessed by the change in the Montgomery-Asberg Depression Rating Scale (MADRS) total score from baseline. Baseline is defined as the assessment score obtained on Day-1. The primary time point is week 3; this variable was analyzed for the change from Baseline to day 1, and weeks 1, 3, 6, 9, and 12 of the study.\nAdditional objectives of this study were to assess the efficacy of psilocybin compared to 1 mg psilocybin on the: • (a) proportion of subjects with response defined as a ≥50% decrease in MADRS total score from baseline to week 3. This was assessed at day 1 and at weeks 1, 6, 9, and 12 of the study. • (b) proportion of subjects who have a sustained response at week 12. Sustained response is defined as the proportion of patients fulfilling response criteria at any visit up to and including week 3, that also fulfils response criteria at all subsequent visits up to and including week 12. Response is defined as ≥50% decrease in MADRS total score from baseline.\nSubjects were randomized to the appropriate therapy after it was confirmed at baseline (Visit 2) that the subject remained eligible to participate in the study. Randomization was stratified by country. Each subject was assigned 1 treatment bottle containing 5 capsules packaged in a double-blind fashion, depending on the randomized treatment arm, the bottle will contain 1 of the following: • (a) 10-mg treatment bottle: 2×5-mg capsules and 3×placebo capsules; • (b) 25-mg treatment bottle: 5×5-mg capsules; or • (c) 1-mg treatment bottle: 1×1-mg capsule and 4×placebo capsules.\nThe change from baseline in MADRS total score at week 3 will be evaluated with a mixed effects model for repeated measures analysis. The model includes treatment, visit, study site, prior psychedelic experience, treatment by visit interaction, subject as a random effect, and baseline MADRS total score. Comparison of the psilocybin optimal dose versus 1 mg psilocybin was performed at the 0.05 testing level. A sensitivity analysis was performed on the primary mixed model repeated measures model adding treatment by study site or country interaction into the model. If it was significant (at the 10% level), then further investigations of sites were performed.\n[…] additional efficacy endpoints that are dichotomous variables (proportion of subjects who are responders, remitters, and sustained responders) were analyzed using the Cochran Mantel Haenszel chi square test, stratified by country, to compare the psilocybin optimal therapeutic dose versus 1 mg psilocybin. A stepdown procedure to correct for multiplicity was employed. […]",
  "data": [
    {"molecule": "CN(C)CCc1c[nH]c2cccc(OP(=O)(O)O)c12", "note": "[COMP360, psilocybin]", "values": [
      {"measurement": "MADRS total score change from baseline, LS mean", "setting": "1 mg (N = 79), Day 2", "value": "−9.0"},
      {"measurement": "MADRS total score change from baseline, LS mean", "setting": "1 mg (N = 79), Week 1", "value": "−6.8"},
      {"measurement": "MADRS total score change from baseline, LS mean", "setting": "1 mg (N = 79), Week 3", "value": "−5.5"},
      {"measurement": "MADRS total score change from baseline, LS mean", "setting": "1 mg (N = 79), Week 6", "value": "−6.3"},
      {"measurement": "MADRS total score change from baseline, LS mean", "setting": "1 mg (N = 79), Week 9", "value": "−5.4"},
      {"measurement": "MADRS total score change from baseline, LS mean", "setting": "1 mg (N = 79), Week 12", "value": "−6.0"},
      {"measurement": "Sustained response (MADRS response at week 3 and week 12 and at least one of week 6 and week 9)", "setting": "1 mg group", "value": 10.1, "unit": "%"},
      {"measurement": "Protocol-defined sustained response (MADRS response criteria from week 3 until week 12)", "setting": "1 mg group", "value": 10.1, "unit": "%"},
      {"measurement": "MADRS total score change from baseline, LS mean", "setting": "10 mg (N = 75), Day 2", "value": "−12.0"},
      {"measurement": "MADRS total score change from baseline, LS mean", "setting": "10 mg (N = 75), Week 1", "value": "−9.1"},
      {"measurement": "MADRS total score change from baseline, LS mean", "setting": "10 mg (N = 75), Week 3", "value": "−7.9"},
      {"measurement": "MADRS total score change from baseline, LS mean", "setting": "10 mg (N = 75), Week 6", "value": "−6.0"},
      {"measurement": "MADRS total score change from baseline, LS mean", "setting": "10 mg (N = 75), Week 9", "value": "−6.1"},
      {"measurement": "MADRS total score change from baseline, LS mean", "setting": "10 mg (N = 75), Week 12", "value": "−5.7"},
      {"measurement": "MADRS total score change from baseline, LS mean diff vs 1 mg", "setting": "10 mg vs 1 mg, Day 2", "value": "−3.0"},
      {"measurement": "MADRS total score change from baseline, LS mean diff vs 1 mg", "setting": "10 mg vs 1 mg, Week 1", "value": "−2.2"},
      {"measurement": "MADRS total score change from baseline, LS mean diff vs 1 mg", "setting": "10 mg vs 1 mg, Week 3", "value": "−2.4"},
      {"measurement": "MADRS total score change from baseline, LS mean diff vs 1 mg", "setting": "10 mg vs 1 mg, Week 6", "value": 0.3},
      {"measurement": "MADRS total score change from baseline, LS mean diff vs 1 mg", "setting": "10 mg vs 1 mg, Week 9", "value": "−0.7"},
      {"measurement": "MADRS total score change from baseline, LS mean diff vs 1 mg", "setting": "10 mg vs 1 mg, Week 12", "value": 0.3},
      {"measurement": "MADRS total score change from baseline, LS mean", "setting": "25 mg (N = 79), Day 2", "value": "−15.0"},
      {"measurement": "MADRS total score change from baseline, LS mean", "setting": "25 mg (N = 79), Week 1", "value": "−13.1"},
      {"measurement": "MADRS total score change from baseline, LS mean", "setting": "25 mg (N = 79), Week 3", "value": "−12.0"},
      {"measurement": "MADRS total score change from baseline, LS mean", "setting": "25 mg (N = 79), Week 6", "value": "−11.7"},
      {"measurement": "MADRS total score change from baseline, LS mean", "setting": "25 mg (N = 79), Week 9", "value": "−9.4"},
      {"measurement": "MADRS total score change from baseline, LS mean", "setting": "25 mg (N = 79), Week 12", "value": "−9.6"},
      {"measurement": "Sustained response (MADRS response at week 3 and week 12 and at least one of week 6 and week 9)", "setting": "25 mg group", "value": 24.1, "unit": "%"},
      {"measurement": "Protocol-defined sustained response (MADRS response criteria from week 3 until week 12)", "setting": "25 mg group", "value": 20.3, "unit": "%"},
      {"measurement": "MADRS total score change from baseline, LS mean diff vs 1 mg", "setting": "25 mg vs 1 mg, Day 2", "value": "−5.9"},
      {"measurement": "MADRS total score change from baseline, LS mean diff vs 1 mg", "setting": "25 mg vs 1 mg, Week 1", "value": "−6.3"},
      {"measurement": "MADRS total score change from baseline, LS mean diff vs 1 mg", "setting": "25 mg vs 1 mg, Week 3 (primary endpoint)", "value": "−6.6"},
      {"measurement": "MADRS total score change from baseline, LS mean diff vs 1 mg", "setting": "25 mg vs 1 mg, Week 6", "value": "−5.3"},
      {"measurement": "MADRS total score change from baseline, LS mean diff vs 1 mg", "setting": "25 mg vs 1 mg, Week 9", "value": "−4.0"},
      {"measurement": "MADRS total score change from baseline, LS mean diff vs 1 mg", "setting": "25 mg vs 1 mg, Week 12", "value": "−3.6"}
    ]}
  ]
}
